{"source": "patent US20260285850A1", "about": "“SUBSTITUTED OXAZOLIDINONES AND IMIDAZOLINONES AS HERBICIDES” (FMC CORPORATION, priority 2023, published 2026)", "format_in_all_cases": "in vivo", "key": {"[1]": {"tested_on": "green foxtail (Setaria viridis)", "assay": "Test A postemergence application, visual injury rating 0-100", "summary_of_the_method": "(§1)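 Visual injury, scored 0-100 (100 = complete control) against untreated plants, 10 days after greenhouse treatment. Test chemicals in surfactant-containing non-phytotoxic solvent were applied in loam soil and sand, as a preemergence soil spray on seeds or postemergence to plants at the one- to two-leaf stage.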"}, "corn (Zea mays) [2]": {"tested_on": "corn (Zea mays)", "assay": "Test A postemergence application, visual injury rating 0-100", "summary_of_the_method": "as §1"}, "[3]": {"tested_on": "palmer (palmer amaranth, palmer pigweed, Amaranthus palmeri)", "assay": "Test A postemergence application, visual injury rating 0-100", "summary_of_the_method": "as §1"}, "[4]": {"tested_on": "ryegrass, Italian (italian ryegrass, Lolium multiflorum)", "assay": "Test A postemergence application, visual injury rating 0-100", "summary_of_the_method": "as §1"}, "[5]": {"tested_on": "galium (catchweed bedstraw, Galium aparine)", "assay": "Test A postemergence application, visual injury rating 0-100", "summary_of_the_method": "as §1"}, "[6]": {"tested_on": "blackgrass (Alopecurus myosuroides)", "assay": "Test A postemergence application, visual injury rating 0-100", "summary_of_the_method": "as §1"}, "[7]": {"tested_on": "ragweed (common ragweed, Ambrosia artemisiifolia)", "assay": "Test A postemergence application, visual injury rating 0-100", "summary_of_the_method": "as §1"}, "soybean (Glycine max) [8]": {"tested_on": "soybean (Glycine max)", "assay": "Test A postemergence application, visual injury rating 0-100", "summary_of_the_method": "as §1"}, "[9]": {"tested_on": "barnyardgrass (Echinochloa crus-galli)", "assay": "Test A postemergence application, visual injury rating 0-100", "summary_of_the_method": "as §1"}, "[10]": {"tested_on": "oat, wild (wild oat, Avena fatua)", "assay": "Test A postemergence application, visual injury rating 0-100", "summary_of_the_method": "as §1"}, "[11]": {"tested_on": "wheat (Triticum aestivum)", "assay": "Test A postemergence application, visual injury rating 0-100", "summary_of_the_method": "as §1"}, "kochia (Bassia scoparia) [12]": {"tested_on": "kochia (Bassia scoparia)", "assay": "Test A postemergence application, visual injury rating 0-100", "summary_of_the_method": "as §1"}, "[13]": {"tested_on": "green foxtail (Setaria viridis)", "assay": "Test A preemergence soil spray, visual injury rating 0-100", "details": "10 days", "summary_of_the_method": "as §1"}, "corn (Zea mays) [14]": {"tested_on": "corn (Zea mays)", "assay": "Test A preemergence soil spray, visual injury rating 0-100", "details": "10 days", "summary_of_the_method": "as §1"}, "[15]": {"tested_on": "palmer (palmer amaranth, palmer pigweed, Amaranthus palmeri)", "assay": "Test A preemergence soil spray, visual injury rating 0-100", "details": "10 days", "summary_of_the_method": "as §1"}, "[16]": {"tested_on": "ryegrass, Italian (italian ryegrass, Lolium multiflorum)", "assay": "Test A preemergence soil spray, visual injury rating 0-100", "details": "10 days", "summary_of_the_method": "as §1"}, "[17]": {"tested_on": "blackgrass (Alopecurus myosuroides)", "assay": "Test A preemergence soil spray, visual injury rating 0-100", "details": "10 days", "summary_of_the_method": "as §1"}, "[18]": {"tested_on": "ragweed (common ragweed, Ambrosia artemisiifolia)", "assay": "Test A preemergence soil spray, visual injury rating 0-100", "details": "10 days", "summary_of_the_method": "as §1"}, "soybean (Glycine max) [19]": {"tested_on": "soybean (Glycine max)", "assay": "Test A preemergence soil spray, visual injury rating 0-100", "details": "10 days", "summary_of_the_method": "as §1"}, "[20]": {"tested_on": "barnyardgrass (Echinochloa crus-galli)", "assay": "Test A preemergence soil spray, visual injury rating 0-100", "details": "10 days", "summary_of_the_method": "as §1"}, "[21]": {"tested_on": "oat, wild (wild oat, Avena fatua)", "assay": "Test A preemergence soil spray, visual injury rating 0-100", "details": "10 days", "summary_of_the_method": "as §1"}, "[22]": {"tested_on": "wheat (Triticum aestivum)", "assay": "Test A preemergence soil spray, visual injury rating 0-100", "details": "10 days", "summary_of_the_method": "as §1"}, "kochia (Bassia scoparia) [23]": {"tested_on": "kochia (Bassia scoparia)", "assay": "Test A preemergence soil spray, visual injury rating 0-100", "details": "10 days", "summary_of_the_method": "as §1"}, "rice (Oryza sativa)": {"tested_on": "rice (Oryza sativa)", "assay": "Test B flooded paddy test, visual plant response rating 0-100", "details": "250 g ai/ha, Flood, applied to paddy water, evaluated after 13 days", "summary_of_the_method": "(§2)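 Visual scores versus untreated controls were recorded 13 days after treatment of greenhouse-held plants. At the 2-leaf stage, pots were flooded 3 cm above the soil surface and compounds added straight to the water.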"}, "[24]": {"tested_on": "ducksalad (Heteranthera limosa)", "assay": "Test B flooded paddy test, visual plant response rating 0-100", "details": "250 g ai/ha, Flood, applied to paddy water, evaluated after 13 days", "summary_of_the_method": "as §2"}, "[25]": {"tested_on": "barnyardgrass (Echinochloa crusgalli)", "assay": "Test B flooded paddy test, visual plant response rating 0-100", "details": "250 g ai/ha, Flood, applied to paddy water, evaluated after 13 days", "summary_of_the_method": "as §2"}, "[26]": {"tested_on": "sedge, umbrella (small-flower umbrella sedge, Cyperus difformis)", "assay": "Test B flooded paddy test, visual plant response rating 0-100", "details": "250 g ai/ha, Flood, applied to paddy water, evaluated after 13 days", "summary_of_the_method": "as §2"}, "[27]": {"details": "62 g ai/ha, postemergence, 10 days, 0 = no effect, 100 = complete control"}, "[28]": {"details": "Postemergence, 16 g ai/ha, greenhouse 10 days, 0 no effect, 100 complete control"}, "[29]": {"details": "62 g ai/ha, 0 = no effect, 100 = complete control"}}}
{"compound": "C=CC1(C(=O)NC2CC=C(C(=O)OC)C2)CN(c2cc(F)cc(F)c2)C(=O)O1", "note": "(racemic) [Compound 169]", "values": [{"measurement": "Foxtail, Green plant response rating (0-100)", "setting": "[1]; [27]", "result": 90}, {"measurement": "Foxtail, Green plant response rating (0 to 100 scale)", "setting": "[1]; [28]", "result": 90}, {"measurement": "Corn plant response rating (0-100)", "setting": "corn (Zea mays) [2]; [27]", "result": 100}, {"measurement": "Corn plant response rating (0 to 100 scale)", "setting": "corn (Zea mays) [2]; [28]", "result": 100}, {"measurement": "Pigweed, Palmer plant response rating (0-100)", "setting": "[3]; [27]", "result": 70}, {"measurement": "Pigweed, Palmer plant response rating (0 to 100 scale)", "setting": "[3]; [28]", "result": 20}, {"measurement": "Ryegrass, Italian plant response rating (0-100)", "setting": "[4]; [27]", "result": 90}, {"measurement": "Ryegrass, Italian plant response rating (0 to 100 scale)", "setting": "[4]; [28]", "result": 80}, {"measurement": "Galium plant response rating (0-100)", "setting": "[5]; [27]", "result": 80}, {"measurement": "Galium plant response rating (0 to 100 scale)", "setting": "[5]; [28]", "result": 70}, {"measurement": "Blackgrass plant response rating (0-100)", "setting": "[6]; [27]", "result": 100}, {"measurement": "Blackgrass plant response rating (0 to 100 scale)", "setting": "[6]; [28]", "result": 100}, {"measurement": "Ragweed plant response rating (0-100)", "setting": "[7]; [27]", "result": 70}, {"measurement": "Ragweed plant response rating (0 to 100 scale)", "setting": "[7]; [28]", "result": 0}, {"measurement": "Soybean plant response rating (0-100)", "setting": "soybean (Glycine max) [8]; [27]", "result": 70}, {"measurement": "Soybean plant response rating (0 to 100 scale)", "setting": "soybean (Glycine max) [8]; [28]", "result": 60}, {"measurement": "Barnyardgrass plant response rating (0-100)", "setting": "[9]; [27]", "result": 100}, {"measurement": "Barnyardgrass plant response rating (0 to 100 scale)", "setting": "[9]; [28]", "result": 100}, {"measurement": "Oat, Wild plant response rating (0-100)", "setting": "[10]; [27]", "result": 90}, {"measurement": "Oat, Wild plant response rating (0 to 100 scale)", "setting": "[10]; [28]", "result": 90}, {"measurement": "Wheat plant response rating (0-100)", "setting": "[11]; [27]", "result": 90}, {"measurement": "Wheat plant response rating (0 to 100 scale)", "setting": "[11]; [28]", "result": 90}, {"measurement": "Kochia plant response rating (0-100)", "setting": "kochia (Bassia scoparia) [12]; [27]", "result": 80}, {"measurement": "Kochia plant response rating (0 to 100 scale)", "setting": "kochia (Bassia scoparia) [12]; [28]", "result": 80}, {"measurement": "Foxtail, Green plant response rating", "setting": "[13]; 16 g ai/ha, 0 to 100 scale", "result": 0}, {"measurement": "Foxtail, Green plant response rating (0-100)", "setting": "[13]; [29]", "result": 90}, {"measurement": "Corn plant response rating", "setting": "corn (Zea mays) [14]; 16 g ai/ha, 0 to 100 scale", "result": 0}, {"measurement": "Corn plant response rating (0-100)", "setting": "corn (Zea mays) [14]; [29]", "result": 60}, {"measurement": "Pigweed, Palmer plant response rating", "setting": "[15]; 16 g ai/ha, 0 to 100 scale", "result": 0}, {"measurement": "Pigweed, Palmer plant response rating (0-100)", "setting": "[15]; [29]", "result": 50}, {"measurement": "Ryegrass, Italian plant response rating", "setting": "[16]; 16 g ai/ha, 0 to 100 scale", "result": 90}, {"measurement": "Ryegrass, Italian plant response rating (0-100)", "setting": "[16]; [29]", "result": 90}, {"measurement": "Blackgrass plant response rating", "setting": "[17]; 16 g ai/ha, 0 to 100 scale", "result": 0}, {"measurement": "Blackgrass plant response rating (0-100)", "setting": "[17]; [29]", "result": 30}, {"measurement": "Ragweed plant response rating", "setting": "[18]; 16 g ai/ha, 0 to 100 scale", "result": 0}, {"measurement": "Ragweed plant response rating (0-100)", "setting": "[18]; [29]", "result": 10}, {"measurement": "Soybean plant response rating", "setting": "soybean (Glycine max) [19]; 16 g ai/ha, 0 to 100 scale", "result": 10}, {"measurement": "Soybean plant response rating (0-100)", "setting": "soybean (Glycine max) [19]; [29]", "result": 20}, {"measurement": "Barnyardgrass plant response rating", "setting": "[20]; 16 g ai/ha, 0 to 100 scale", "result": 10}, {"measurement": "Barnyardgrass plant response rating (0-100)", "setting": "[20]; [29]", "result": 90}, {"measurement": "Oat, Wild plant response rating", "setting": "[21]; 16 g ai/ha, 0 to 100 scale", "result": 20}, {"measurement": "Oat, Wild plant response rating (0-100)", "setting": "[21]; [29]", "result": 50}, {"measurement": "Wheat plant response rating", "setting": "[22]; 16 g ai/ha, 0 to 100 scale", "result": 80}, {"measurement": "Wheat plant response rating (0-100)", "setting": "[22]; [29]", "result": 90}, {"measurement": "Kochia plant response rating", "setting": "kochia (Bassia scoparia) [23]; 16 g ai/ha, 0 to 100 scale", "result": 0}, {"measurement": "Kochia plant response rating (0-100)", "setting": "kochia (Bassia scoparia) [23]; [29]", "result": 40}, {"measurement": "Plant response rating, Rice (0 to 100 scale, 0 is no effect and 100 is complete control)", "setting": "rice (Oryza sativa)", "result": 95}, {"measurement": "Plant response rating, Ducksalad (0 to 100 scale, 0 is no effect and 100 is complete control)", "setting": "[24]", "result": 100}, {"measurement": "Plant response rating, Barnyardgrass (0 to 100 scale, 0 is no effect and 100 is complete control)", "setting": "[25]", "result": 90}, {"measurement": "Plant response rating, Sedge, Umbrella (0 to 100 scale, 0 is no effect and 100 is complete control)", "setting": "[26]", "result": 100}]}
